The source of these data is patent US20240261292A1, “COMBINATION THERAPIES” (Janssen Pharmaceutica NV, priority 2021, published 2024).

Data set [1] deals with OCI-AML3 cells. Nature of the data set: In vitro proliferation (spheroid, Incucyte), menin-MLL inhibitor with DHODH inhibitor, OCI-AML3. Particulars: 8 days. Type of data set: cell-based, human.
Source text: Spheroid-like growth was monitored in real-time by non-invasive live-cell imaging using the 4× objective of the Incucyte ZOOM live cell imaging system (Essen BioScience), and acquiring images on Day 8. […] The DMSO content was normalized to 0.3% and the percent confluence from the DMSO well was used as baseline response. […] Data from 2 independent experiments from MOLM-13 or 3 independent experiments from OCI-AML3 cells were pooled and analyzed.
The next data set has as its system MOLM-13 tumors. Nature of the data set: Efficacy of menin-MLL inhibitor in combination with DHODH inhibitor in MOLM-13 (KMT2A-r) IV model. Type of data set: in vivo. The conditions noted are these: MOLM-13 IV, NSG mice. The text has this: 15) In Vivo Efficacy of Menin-MLL Inhibitor in Combination with DHODH Inhibitor in Disseminated Models of Human Acute Myeloid Leukemia (MOLM-13 and OCI-AML) 15A) Efficacy of Menin-MLL Inhibitor in Combination with DHODH Inhibitor in MOLM-13 (KMT2A-r) IV Model in NSG Mice
Day 0 is the day of tumor cell implantation and study initiation. In the MOLM-13 efficacy study, mice bearing IV MOLM-13 xenograft tumors were randomly assigned to treatment groups 5 days post-tumor cell engraftment.

In another data set the test system is OCI-AML3 tumors. Put plainly: Efficacy of menin-MLL inhibitor in combination with DHODH inhibitor in OCI-AML3 (NPM1c) IV model. The conditions noted are these: NSG mice. The class given is in vivo. The text has this: 15B) Efficacy of Menin-MLL Inhibitor in Combination with DHODH Inhibitor in OCI-AML3 (NPM1c) IV Model in NSG Mice In the OCI-AML3 efficacy study, mice bearing IV OCI-AML3 xenograft tumors were randomly assigned to treatment groups 5 days post-tumor cell engraftment.

Data set [2] relates to OCI-AML3 cells. Put plainly: Proliferation assay (spheroid), OCI-AML3. Type of data set: cell-based, human. Particulars: 8 days. Here is the method: The anti-proliferative effect of menin/MLL protein/protein interaction inhibitor test compounds was assessed inhuman leukemia cell lines. The cell line MOLM-14 harbors a MLL translocation and expresses the MLL fusion protein MLL-AF9, respectively, as well as the wildtype protein from the second allele. OCI-AML3 cells that carry the NPM1c gene mutation were also tested. […] KO-52 was used as a control cell line containing two MLL (KMT2A) wildtype alleles in order to exclude compounds that display general cytotoxic effects.
KO-52 and OCI-AML3 cell lines were propagated in alpha-MEM (Sigma Aldrich) supplemented with 20% heat-inactivated fetal bovine serum (HyClone), 2 mM L-glutamine (Sigma Aldrich) and 50 μg/ml gentamycin (Gibco).
In order to assess the anti-proliferative effects, 200 MOLM-14 cells, 200 OCI-AML3 cells or 300 KO-52 cells were seeded in 200 μl media per well in 96-well round bottom, ultra-low attachment plates (Costar, catalogue number 7007). Cell seeding numbers were chosen based on growth curves to ensure linear growth throughout the experiment. Test compounds were added at different concentrations and the DMSO content was normalized to 0.3%. Cells were incubated for 8 days at 37° C. and 5% CO2. Spheroid like growth was measured in real-time by live-cell imaging (IncuCyteZOOM, Essenbio, 4× objective) acquiring images at day 8. Confluence (%) as a measure of spheroid size was determined using an integrated analysis tool.
In order to determine the effect of the test compounds over time, the confluence in each well as a measure of spheroid size, was calculated. Confluence of the highest dose of a reference compound was used as baseline for the LC (Low control) and the confluence of DMSO treated cells was used as 0% cytotoxicity (High Control, HC).
HC=High Control: Mean confluence (%) (DMSO treated cells);
Dose-response equation was used for the plot of % Effect vs Log10 compound concentration with a variable slope and fixing the maximum to 100% and the minimum to 0%. 2b) MEIS1 mRNA Expression Assay

The subject of data set [3] is iCell Cardiomyocytes2 (hSC-CMs). Put plainly: Ca2+-fluorescence assay in human pluripotent stem cell-derived cardiomyocytes (CTCM human). The class given is cell-based. Further details: key to Hazard Scoring Color @ 0.1 μM / Hazard Scoring Color @ 0.2 μM / Hazard Scoring Color @ 0.5 μM / Hazard Scoring Color @ 1 μM / Hazard Scoring Color @ 2.5 μM / Hazard Scoring Color @ 5 μM / Hazard Scoring Color @ 0.3 μM / Hazard Scoring Color @ 3 μM / Hazard Scoring Color @ 10 μM / Hazard Scoring Color @ 30 μM: Green: No concern; Yellow: Low concern; Red: High concern; Black: Very high concern due to arrhythmic events. The procedure:
7) Cardio-Electrophysiological Effects of the Testing Compounds in Synchronously Beating Human Pluripotent Stem Cell-Derived Cardiomyocytes (hSC-CMs) Using a Ca^2+-Fluorescence Assay (CTCM Human)
Compounds were tested in the 96-well plates.
Compounds were tested at 0.1 μM, 0.2 μM, 0.5 μM, 1 μM, 2.5 μM and 5 μM (n=4 per dose) on Cor.4U®-Cardiomyocytes or on iCell® Cardionyocytes2.
Alternatively, compounds were tested at 0.1 μM, 0.3 μM; 1 μM, 3 μM, 10 μM and 30 μM (n=4 per dose) mostly on iCell® Cardiomyocytes2.
Vehicle control: Dimethylsulfoxide (DMSO). The solutions of the compound in DMSO or its solvent (final concentration of 0.1% DMSO; n=8).
Tested compounds were dissolved in DMSO at 1000-fold the intended concentrations. A compound “mother-plate” was made, containing the test compounds and positive and negative controls at 1000-fold the final concentrations. At the experiment day, these stock solutions were diluted with Tyrode (Sigma), supplemented with 10 mM HEPES (Gibco), to 2-fold the intended concentration (in round bottom compound plates). Final DMSO concentration in test solutions and vehicle control was 0.1%.
hSC-CMs (Cor.4U® Cardiomyocytes) were obtained from CDI (Ncardia, Germany). Cells are pre-plated and seeded in fibronectin-coated 96-well plates at a density suited to form a monolayer and maintained in culture in a stage incubator (37° C., 5% CO2), according to the instructions of the cell provider.
Second line hSC derived cardiomyocyte called iCell® Cardiomyocytes2 were purchased from FUJIFILM Cellular Dynamics (USA). The experiments with test drugs are carried out 5 to 7 days after plating the cells onto the plate to have a living, beating monolayer of hiPSC-derived cardiomyocytes. The beating monolayer in 96-well-plates are normally taken from 2 Vials of frozen iCell® Cardiomyocytes2 (≈5 million cells/vial), which will be plated onto three 96-well plates (≈50K/well).
At least one hour before the start of the experiments the normal cell medium was replaced with Tyrode solution with Calcium dye (see below).
Cal 520 dye (AAT Bioquest) was dissolved in 11 ml of Tyrode supplemented with 10 mM HEPES and warmed up to 37 C before adding to the cells.
35 μl cell culture medium was removed from each well and replaced with 35 μl of pre-warmed Cal 520 dye solution and cell plate was incubated for 45 min at 37° C./5% CO2. Cells were incubated for 5 min at 37° C.
Spontaneous electrical activity is recorded, using Cal520™ (AAT Bioquest) calcium fluorescence-dye signalling. This dye integrates the total intracellular calcium activity over the whole well. A bottle of Ca1520 dye (50 μg, MW: 1103/mol) is dissolved with 50 μl DMSO as a stock solution of 0.9 mM. 50 μL of the stock solution of the dye was added to 10 ml Tryodes solution to have dye concentration of 4.5 μM. Subsequently, 35 μl of this dye solution was added into each well, to have a final dye concentration of 1.58 μM. The current dye protocol on this CTCM human assay was established recently (Ivan Kopljar et al, Journal of Pharmacological and toxicological methods 2018. 91: 80-86; Lu et al., Tox Sci 2019. 170 (2): 345-356).
Fluorescent signals (Ca^2+ transient morphology) were measured using the Functional Drug Screen System (FDSS/μCell; Hamamatsu, Japan) and the recordings were subsequently analyzed off-line, using appropriate software e.g., Notocord.
The cell plate was loaded into the FDSS/μCell for a test run: Ca^2+ transients were measured for 4 minutes to check for synchronous beating of the cardiomyocytes in each well. All 96 wells were measured simultaneously (sampling interval: 0.06 s, short exposure time: 10 ms; excitation wavelength 480 nm; emission wavelength 540 nm; FDSS/μCell warmed to 37° C.).
During the compound addition step, 100 μl of the respective double-concentrated test solutions was pipetted into each well simultaneously.
Data were analyzed off-line using appropriate software e.g., Notocord-Hem (version 4.3). […]

Where [4] appears, read: Compound 22 0.0125 mg/kg (so in the source) PO daily 28 days.
[5] abbreviates: Compound 22 0.063 mg/kg PO daily 28 days.
Setting [6] is: Compound 22 0.125 mg/kg PO daily 28 days.
[7] abbreviates: Compound 22 0.25 mg/kg PO daily 28 days.
Where [8] appears, read: efficacious dose in mouse xenograft models of 30 mg/kg, (mouse, human), estimated.

Take `CCn1c(CO)nn(-c2cc3c(C(C)C)cn(-c4ccccc4C)c(=O)c3cc2F)c1=O` [Compound 22, 6-(4-Ethyl-3-(hydroxymethyl)-5-oxo-4,5-dihydro-1H-1,2,4-triazol-1-yl)-7-fluoro-4-isopropyl-2-(o-tolyl)isoquinolin-1(2H)-one]: the “Growth inhibition, monotherapy (in words)” value with OCI-AML3 cells [1] is reported as “potent growth inhibition”. The “% ILS” value is “*125%” in the data set on MOLM-13 tumors (setting [4]), “*111%” in the data set on MOLM-13 tumors (setting [5]), “*60%” in the data set with OCI-AML3 tumors (setting [6]) and “*65%” in the data set on OCI-AML3 tumors (setting [7]). In addition, the “Median Survival” value with MOLM-13 tumors (setting [4]) is on record as 40.5; in the data set with MOLM-13 tumors (setting [5]) it was 38; with OCI-AML3 tumors (setting [6]), 41.5; in the data set with OCI-AML3 tumors (setting [7]), 43.

One may read the IC50 as the concentration needed to halve the response being measured. On to `CCN(C(=O)c1cc(F)ccc1Oc1nncnc1N1CCC2(C1)CN([C@H](CCCN(C)CCOC)C(C)C)C2)C(C)C` [Compound A1], for which, in the data set on OCI-AML3 cells [2], inhibition was half-maximal at 80 nM (IC50). The “Hazard Scoring Color @ 0.1 μM” value in data set [3] (0.1 μM, 30 min, iCell Cardiomyocytes2 (Table 12)) is “Green”. Further, the “Hazard Scoring Color @ 0.3 μM” value in data set [3] (0.3 μM, 30 min, iCell Cardiomyocytes2 (Table 12)) is recorded as “Green”. The “Hazard Scoring Color @ 1 μM” value in data set [3] (1 μM, 30 min, iCell Cardiomyocytes2 (Table 12)) is “Green”. For the same molecule, the “Hazard Scoring Color @ 3 μM” value in data set [3] (3 μM, 30 min, iCell Cardiomyocytes2 (Table 12)) is “Green”. For the same molecule, the “Hazard Scoring Color @ 10 μM” value in data set [3] (10 μM, 30 min, iCell Cardiomyocytes2 (Table 12)) was “Green”. The “Hazard Scoring Color @ 30 μM” value in data set [3] (30 μM, 30 min, iCell Cardiomyocytes2 (Table 12)) was “yellow”. Further, in data set [3] (setting [8]), the “Margin CTCM human 10 μM vs free Cmax” value is on record as over 16 and the “Margin CTCM human 30 μM vs free Cmax” value is recorded as over 45.
